According to US20230151025A1, “SUBSTITUTED THIAZOLOPYRIDINES, SALTS THEREOF AND THEIR USE AS HERBICIDALLY ACTIVE SUBSTANCES” (Bayer Aktiengesellschaft, priority 2020, published 2023):

system: Digitaria sanguinalis (DIGSA); experiment: Herbicidal post-emergence action (B), 1280 g/ha; format: in vivo; conditions: rated visually after about 3 weeks vs untreated controls
Method in brief: (§1)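 Post-emergence greenhouse test: weeds in sandy loam treated at the one-leaf stage, 2 to 3 weeks after sowing, with WP or EC formulations plus 0.5% additive at 600 l/ha water. Visual activity versus untreated controls after about 3 weeks (100% = dead, 0% = like control).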

Compound	herbicidal activity DIGSA [%]
Cc1cc2scnc2nc1-c1cccc(F)c1 [Example I-003, 5-(3-fluorophenyl)-6-methyl-thiazolo[4,5-b]pyridine]	90
CCc1cc2scnc2nc1-c1cccc(F)c1 [Example I-029]	100

system: Amaranthus retroflexus (AMARE); experiment: Herbicidal post-emergence action (B), 1280 g/ha; format: in vivo; conditions: rated visually after about 3 weeks vs untreated controls
Method in brief: as §1

Compound	herbicidal activity AMARE [%]
Cc1cc2scnc2nc1-c1cccc(F)c1 [Example I-003, 5-(3-fluorophenyl)-6-methyl-thiazolo[4,5-b]pyridine]	100
CCc1cc2scnc2nc1-c1cccc(F)c1 [Example I-029]	100

system: Echinochloa crus-galli (ECHCG); experiment: Herbicidal post-emergence action (B), 1280 g/ha; format: in vivo; conditions: rated visually after about 3 weeks vs untreated controls
Method in brief: as §1

Compound	herbicidal activity ECHCG [%]
Cc1cc2scnc2nc1-c1cccc(F)c1 [Example I-003, 5-(3-fluorophenyl)-6-methyl-thiazolo[4,5-b]pyridine]	100
CCc1cc2scnc2nc1-c1cccc(F)c1 [Example I-029]	100

system: Stellaria media (STEME); experiment: Herbicidal post-emergence action (B), 1280 g/ha; format: in vivo; conditions: not given
Method in brief: as §1

Compound	herbicidal effect STEME [%]
Cc1cc2scnc2nc1-c1cccc(F)c1 [Example I-003, 5-(3-fluorophenyl)-6-methyl-thiazolo[4,5-b]pyridine]	100
CCc1cc2scnc2nc1-c1cccc(F)c1 [Example I-029]	100

system: Veronica persica (VERPE); experiment: Herbicidal post-emergence action (B), 1280 g/ha; format: in vivo; conditions: not given
Method in brief: as §1

Compound	herbicidal effect VERPE [%]
Cc1cc2scnc2nc1-c1cccc(F)c1 [Example I-003, 5-(3-fluorophenyl)-6-methyl-thiazolo[4,5-b]pyridine]	90
CCc1cc2scnc2nc1-c1cccc(F)c1 [Example I-029]	90

system: Amaranthus retroflexus (AMARE); experiment: Herbicidal pre-emergence action (C), 320 g/ha; format: in vivo; conditions: ca. 3 weeks
Method in brief: (§2)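 Sandy loam pots, seeds covered with soil → WP/EC compound sprayed on soil surface (aq., +0.5% additive, 600 l/ha) → greenhouse, optimum growth → visual herbicidal effect (%) at ca. 3 wk vs untreated.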

Compound	herbicidal effect AMARE [%]
Cc1cc2scnc2nc1-c1cccc(F)c1 [Example I-003, 5-(3-fluorophenyl)-6-methyl-thiazolo[4,5-b]pyridine]	80
CCc1cc2scnc2nc1-c1cccc(F)c1 [Example I-029]	90

system: Echinochloa crus-galli (ECHCG); experiment: Herbicidal pre-emergence action (C), 320 g/ha; format: in vivo; conditions: ca. 3 weeks
Method in brief: as §2

Compound	herbicidal effect ECHCG [%]
Cc1cc2scnc2nc1-c1cccc(F)c1 [Example I-003, 5-(3-fluorophenyl)-6-methyl-thiazolo[4,5-b]pyridine]	100
CCc1cc2scnc2nc1-c1cccc(F)c1 [Example I-029]	100

system: Alopecurus myosuroides (ALOMY); experiment: Herbicidal pre-emergence action (C), 320 g/ha; format: in vivo; conditions: ca. 3 weeks
Method in brief: as §2

Compound	herbicidal effect ALOMY [%]
Cc1cc2scnc2nc1-c1cccc(F)c1 [Example I-003, 5-(3-fluorophenyl)-6-methyl-thiazolo[4,5-b]pyridine]	100
CCc1cc2scnc2nc1-c1cccc(F)c1 [Example I-029]	100

system: Lolium rigidum (LOLRI); experiment: Herbicidal pre-emergence action (C), 320 g/ha; format: in vivo; conditions: ca. 3 weeks
Method in brief: as §2

Compound	herbicidal effect LOLRI [%]
Cc1cc2scnc2nc1-c1cccc(F)c1 [Example I-003, 5-(3-fluorophenyl)-6-methyl-thiazolo[4,5-b]pyridine]	100
CCc1cc2scnc2nc1-c1cccc(F)c1 [Example I-029]	100

system: Setaria viridis (SETVI); experiment: Herbicidal pre-emergence action (C), 320 g/ha; format: in vivo; conditions: ca. 3 weeks
Method in brief: as §2

Compound	herbicidal effect SETVI [%]
Cc1cc2scnc2nc1-c1cccc(F)c1 [Example I-003, 5-(3-fluorophenyl)-6-methyl-thiazolo[4,5-b]pyridine]	100
CCc1cc2scnc2nc1-c1cccc(F)c1 [Example I-029]	100

system: Veronica persica (VERPE); experiment: Herbicidal pre-emergence action (C), 320 g/ha; format: in vivo; conditions: ca. 3 weeks
Method in brief: as §2

Compound	herbicidal effect VERPE [%]
Cc1cc2scnc2nc1-c1cccc(F)c1 [Example I-003, 5-(3-fluorophenyl)-6-methyl-thiazolo[4,5-b]pyridine]	90
CCc1cc2scnc2nc1-c1cccc(F)c1 [Example I-029]	90

system: Digitaria sanguinalis (DIGSA); experiment: Herbicidal pre-emergence action (C), 320 g/ha; format: in vivo; conditions: ca. 3 weeks
Method in brief: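 Weed and crop seeds sown in sandy loam; WP or EC formulations applied pre-emergence to the soil surface as aqueous suspension/emulsion with 0.5% additive at 600 l water/ha. Greenhouse-grown under optimum conditions; damage visually scored after ca. 3 weeks versus untreated controls (0% = as control, 100% = plants dead).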

Compound	herbicidal effect DIGSA [%]
Cc1cc2scnc2nc1-c1cccc(F)c1 [Example I-003, 5-(3-fluorophenyl)-6-methyl-thiazolo[4,5-b]pyridine]	100
CCc1cc2scnc2nc1-c1cccc(F)c1 [Example I-029]	100

system: Digitaria sanguinalis (DIGSA); experiment: Herbicidal pre-emergence action (A), 1280 g/ha; format: in vivo; conditions: visual grading after ca. 3 weeks vs untreated controls, 100% = plants have died off, 0% = as control plants
Method in brief: (§3)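 Pre-emergence greenhouse test: seeds sown in sandy loam pots, WP or EC formulations sprayed onto covering soil as aqueous suspension/emulsion with 0.5% additive at 600 l water/ha. Damage graded visually after ca. 3 weeks versus untreated controls, 0% = as control, 100% = plants dead.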

Compound	DIGSA, herbicidal effect in percent (%)
Cc1cc2scnc2nc1-c1cccc(F)c1 [Example I-003, 5-(3-fluorophenyl)-6-methyl-thiazolo[4,5-b]pyridine]	100
CCc1cc2scnc2nc1-c1cccc(F)c1 [Example I-029]	100

system: Amaranthus retroflexus (AMARE); experiment: Herbicidal pre-emergence action (A), 1280 g/ha; format: in vivo; conditions: visual grading after ca. 3 weeks vs untreated controls
Method in brief: as §3

Compound	herbicidal effect AMARE [%]
Cc1cc2scnc2nc1-c1cccc(F)c1 [Example I-003, 5-(3-fluorophenyl)-6-methyl-thiazolo[4,5-b]pyridine]	90
CCc1cc2scnc2nc1-c1cccc(F)c1 [Example I-029]	100

system: Abutilon theophrasti (ABUTH); experiment: Herbicidal pre-emergence action (A), 1280 g/ha; format: in vivo; conditions: visual grading after ca. 3 weeks vs untreated controls, 100% = plants have died off, 0% = as control plants
Method in brief: as §3

Compound	ABUTH, herbicidal effect in percent (%)
CCc1cc2scnc2nc1-c1cccc(F)c1 [Example I-029]	90

system: Echinochloa crus-galli (ECHCG); experiment: Herbicidal pre-emergence action (A), 1280 g/ha; format: in vivo; conditions: visual grading after ca. 3 weeks vs untreated controls, 100% = plants have died off, 0% = as control plants
Method in brief: as §3

Compound	ECHCG, herbicidal effect in percent (%)
Cc1cc2scnc2nc1-c1cccc(F)c1 [Example I-003, 5-(3-fluorophenyl)-6-methyl-thiazolo[4,5-b]pyridine]	100
CCc1cc2scnc2nc1-c1cccc(F)c1 [Example I-029]	100

system: Kochia scoparia (KCHSC; Bassia scoparia); experiment: Herbicidal pre-emergence action (A), 1280 g/ha; format: in vivo; conditions: visual grading after ca. 3 weeks vs untreated controls
Method in brief: as §3

Compound	herbicidal effect KCHSC [%]
Cc1cc2scnc2nc1-c1cccc(F)c1 [Example I-003, 5-(3-fluorophenyl)-6-methyl-thiazolo[4,5-b]pyridine]	100
CCc1cc2scnc2nc1-c1cccc(F)c1 [Example I-029]	100

system: Stellaria media (STEME); experiment: Herbicidal pre-emergence action (A), 1280 g/ha; format: in vivo; conditions: visual grading after ca. 3 weeks vs untreated controls
Method in brief: as §3

Compound	herbicidal effect STEME [%]
Cc1cc2scnc2nc1-c1cccc(F)c1 [Example I-003, 5-(3-fluorophenyl)-6-methyl-thiazolo[4,5-b]pyridine]	90
CCc1cc2scnc2nc1-c1cccc(F)c1 [Example I-029]	100

system: Alopecurus myosuroides (ALOMY); experiment: Herbicidal pre-emergence action (A), 1280 g/ha; format: in vivo; conditions: visual grading after ca. 3 weeks vs untreated controls, 100% = plants have died off, 0% = as control plants
Method in brief: as §3

Compound	ALOMY, herbicidal effect in percent (%)
Cc1cc2scnc2nc1-c1cccc(F)c1 [Example I-003, 5-(3-fluorophenyl)-6-methyl-thiazolo[4,5-b]pyridine]	90
CCc1cc2scnc2nc1-c1cccc(F)c1 [Example I-029]	100

system: Matricaria inodora (MATIN); experiment: Herbicidal pre-emergence action (A), 1280 g/ha; format: in vivo; conditions: visual grading after ca. 3 weeks vs untreated controls
Method in brief: as §3

Compound	herbicidal effect MATIN [%]
Cc1cc2scnc2nc1-c1cccc(F)c1 [Example I-003, 5-(3-fluorophenyl)-6-methyl-thiazolo[4,5-b]pyridine]	90
CCc1cc2scnc2nc1-c1cccc(F)c1 [Example I-029]	90

system: Lolium rigidum (LOLRI); experiment: Herbicidal pre-emergence action (A), 1280 g/ha; format: in vivo; conditions: visual grading after ca. 3 weeks vs untreated controls, 100% = plants have died off, 0% = as control plants
Method in brief: as §3

Compound	LOLRI, herbicidal effect in percent (%)
Cc1cc2scnc2nc1-c1cccc(F)c1 [Example I-003, 5-(3-fluorophenyl)-6-methyl-thiazolo[4,5-b]pyridine]	100
CCc1cc2scnc2nc1-c1cccc(F)c1 [Example I-029]	100

system: Setaria viridis (SETVI); experiment: Herbicidal pre-emergence action (A), 1280 g/ha; format: in vivo; conditions: visual grading after ca. 3 weeks vs untreated controls
Method in brief: as §3

Compound	herbicidal effect SETVI [%]
Cc1cc2scnc2nc1-c1cccc(F)c1 [Example I-003, 5-(3-fluorophenyl)-6-methyl-thiazolo[4,5-b]pyridine]	100
CCc1cc2scnc2nc1-c1cccc(F)c1 [Example I-029]	100

system: Poa annua (POAAN); experiment: Herbicidal pre-emergence action (A), 1280 g/ha; format: in vivo; conditions: visual grading after ca. 3 weeks vs untreated controls, 100% = plants have died off, 0% = as control plants
Method in brief: as §3

Compound	POAAN, herbicidal effect in percent (%)
Cc1cc2scnc2nc1-c1cccc(F)c1 [Example I-003, 5-(3-fluorophenyl)-6-methyl-thiazolo[4,5-b]pyridine]	100
CCc1cc2scnc2nc1-c1cccc(F)c1 [Example I-029]	100

system: Veronica persica (VERPE); experiment: Herbicidal pre-emergence action (A), 1280 g/ha; format: in vivo; conditions: visual grading after ca. 3 weeks vs untreated controls
Method in brief: as §3

Compound	herbicidal effect VERPE [%]
Cc1cc2scnc2nc1-c1cccc(F)c1 [Example I-003, 5-(3-fluorophenyl)-6-methyl-thiazolo[4,5-b]pyridine]	90
CCc1cc2scnc2nc1-c1cccc(F)c1 [Example I-029]	90
